Data reported in patent US12116343B2, “Inhibitors of APOL1 and methods of using same” (Vertex Pharmaceuticals Incorporated, priority 2020, dated 2024).

Target: T1, APOL1 G1 Protein (Homo sapiens, UniProt O14791, I384M/S342G)
T1 sequence (O14791 28-398 S342G/I384M): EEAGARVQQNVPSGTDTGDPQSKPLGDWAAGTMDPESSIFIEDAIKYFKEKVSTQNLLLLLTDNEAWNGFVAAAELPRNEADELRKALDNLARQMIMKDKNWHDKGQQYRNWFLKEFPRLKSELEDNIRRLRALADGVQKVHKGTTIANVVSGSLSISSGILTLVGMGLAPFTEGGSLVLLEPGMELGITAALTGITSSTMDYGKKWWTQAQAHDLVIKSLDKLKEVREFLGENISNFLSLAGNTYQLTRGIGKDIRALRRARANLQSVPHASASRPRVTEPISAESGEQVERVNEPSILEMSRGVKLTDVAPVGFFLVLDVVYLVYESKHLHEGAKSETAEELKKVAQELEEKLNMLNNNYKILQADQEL
Assay: Trypanosoma brucei brucei lysis assay using APOL1 recombinant protein (AlamarBlue viability)
Assay type: cell-based
Conditions: Table 24, Compounds 287 to 465; read-out: Trypanosoma Assay (IC50)
Summary of the method: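 Bloodstream-form T. b. brucei Lister 427 VSG 221, 120,000 parasites/well in phenol red-free, FBS-free medium, lysed by recombinant APOL1 G1 with compound (10-point dose response, 0.1% DMSO final). Viability read by AlamarBlue fluorescence against a parasite standard curve.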

NC(=O)CNCC1CC(c2c(-c3ccc(F)cc3)[nH]c3c(F)cc(F)cc23)C1 (stereo not shown) [Compound 433, 2-(((3-(5,7-difluoro-2-(4-fluorophenyl)-1H-indol-3-yl)cyclobutyl)methyl)amino)acetamide]
IC50: < 0.25 µM
